Measured values reported in ChEMBL document CHEMBL2150882, “Discovery of a new molecular probe ML228: an activator of the hypoxia inducible factor (HIF) pathway” (Bioorg Med Chem Lett, 2012).
Values belong to the compound of their own block, whether it stands above or below them. Activity calls are given as the source filed them. The rule behind the calls is not given here.

Assays:
[1] = target: Mu-type opioid receptor (Homo sapiens) (UniProt P35372); assay: Inhibition of human mu opioid receptor at 10 uM by radioligand displacement assay
Mu-type opioid receptor (Homo sapiens), sequence (P35372 whole entry): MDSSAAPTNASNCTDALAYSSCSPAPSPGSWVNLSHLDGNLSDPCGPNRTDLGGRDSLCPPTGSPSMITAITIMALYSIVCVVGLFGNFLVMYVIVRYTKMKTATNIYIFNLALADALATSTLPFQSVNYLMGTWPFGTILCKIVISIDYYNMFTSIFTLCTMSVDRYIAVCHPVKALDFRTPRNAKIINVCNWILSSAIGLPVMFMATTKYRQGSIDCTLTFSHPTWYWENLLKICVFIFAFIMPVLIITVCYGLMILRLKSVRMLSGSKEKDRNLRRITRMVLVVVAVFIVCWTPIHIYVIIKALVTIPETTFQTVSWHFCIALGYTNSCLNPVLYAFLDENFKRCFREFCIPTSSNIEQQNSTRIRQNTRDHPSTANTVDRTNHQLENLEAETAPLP

[2] = Inhibition of proteasome chymotrypsin-like activity using Suc-LLVY-aminoluciferin as substrate by luciferase-coupled assay; assay type: subcellular
[3] = target: T1, Adenosine receptor A3 (Homo sapiens) (UniProt P0DMS8); assay: Inhibition of human adenosine receptor A3 at 10 uM by radioligand displacement assay
T1 sequence (whole entry): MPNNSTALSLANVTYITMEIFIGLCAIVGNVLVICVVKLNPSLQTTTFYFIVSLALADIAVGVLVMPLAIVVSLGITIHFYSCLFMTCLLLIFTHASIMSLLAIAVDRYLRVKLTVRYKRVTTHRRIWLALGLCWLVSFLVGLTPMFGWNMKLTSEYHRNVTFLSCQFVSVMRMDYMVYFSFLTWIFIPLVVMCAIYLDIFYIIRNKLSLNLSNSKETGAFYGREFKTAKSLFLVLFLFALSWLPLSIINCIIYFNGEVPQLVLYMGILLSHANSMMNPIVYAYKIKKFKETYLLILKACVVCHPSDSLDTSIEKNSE

[4] = target: Sodium-dependent dopamine transporter (Homo sapiens) (UniProt Q01959); assay: Inhibition of human DAT at 10 uM by radioligand displacement assay
Sodium-dependent dopamine transporter (Homo sapiens), sequence (Q01959 whole entry): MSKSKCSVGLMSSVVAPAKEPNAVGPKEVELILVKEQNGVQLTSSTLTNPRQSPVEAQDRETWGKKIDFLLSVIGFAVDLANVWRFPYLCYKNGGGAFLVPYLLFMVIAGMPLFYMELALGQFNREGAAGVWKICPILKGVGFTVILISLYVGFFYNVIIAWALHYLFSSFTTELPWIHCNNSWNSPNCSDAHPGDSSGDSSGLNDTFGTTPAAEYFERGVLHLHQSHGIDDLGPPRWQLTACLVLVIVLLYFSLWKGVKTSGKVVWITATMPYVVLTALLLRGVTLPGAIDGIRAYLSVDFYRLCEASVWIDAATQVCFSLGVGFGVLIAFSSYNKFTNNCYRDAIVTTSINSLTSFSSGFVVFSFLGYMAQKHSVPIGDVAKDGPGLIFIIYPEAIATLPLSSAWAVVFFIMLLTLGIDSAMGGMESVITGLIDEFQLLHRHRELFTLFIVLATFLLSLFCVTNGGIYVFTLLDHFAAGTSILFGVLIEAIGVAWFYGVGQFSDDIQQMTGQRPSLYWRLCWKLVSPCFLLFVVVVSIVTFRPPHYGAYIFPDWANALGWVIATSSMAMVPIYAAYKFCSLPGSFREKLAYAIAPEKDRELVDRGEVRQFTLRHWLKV

[5] = target: hERG (KCNH2) (Homo sapiens, UniProt Q12809); assay: Inhibition of human ERG at 10 uM by radioligand displacement assay
hERG (KCNH2), sequence (Q12809 whole entry): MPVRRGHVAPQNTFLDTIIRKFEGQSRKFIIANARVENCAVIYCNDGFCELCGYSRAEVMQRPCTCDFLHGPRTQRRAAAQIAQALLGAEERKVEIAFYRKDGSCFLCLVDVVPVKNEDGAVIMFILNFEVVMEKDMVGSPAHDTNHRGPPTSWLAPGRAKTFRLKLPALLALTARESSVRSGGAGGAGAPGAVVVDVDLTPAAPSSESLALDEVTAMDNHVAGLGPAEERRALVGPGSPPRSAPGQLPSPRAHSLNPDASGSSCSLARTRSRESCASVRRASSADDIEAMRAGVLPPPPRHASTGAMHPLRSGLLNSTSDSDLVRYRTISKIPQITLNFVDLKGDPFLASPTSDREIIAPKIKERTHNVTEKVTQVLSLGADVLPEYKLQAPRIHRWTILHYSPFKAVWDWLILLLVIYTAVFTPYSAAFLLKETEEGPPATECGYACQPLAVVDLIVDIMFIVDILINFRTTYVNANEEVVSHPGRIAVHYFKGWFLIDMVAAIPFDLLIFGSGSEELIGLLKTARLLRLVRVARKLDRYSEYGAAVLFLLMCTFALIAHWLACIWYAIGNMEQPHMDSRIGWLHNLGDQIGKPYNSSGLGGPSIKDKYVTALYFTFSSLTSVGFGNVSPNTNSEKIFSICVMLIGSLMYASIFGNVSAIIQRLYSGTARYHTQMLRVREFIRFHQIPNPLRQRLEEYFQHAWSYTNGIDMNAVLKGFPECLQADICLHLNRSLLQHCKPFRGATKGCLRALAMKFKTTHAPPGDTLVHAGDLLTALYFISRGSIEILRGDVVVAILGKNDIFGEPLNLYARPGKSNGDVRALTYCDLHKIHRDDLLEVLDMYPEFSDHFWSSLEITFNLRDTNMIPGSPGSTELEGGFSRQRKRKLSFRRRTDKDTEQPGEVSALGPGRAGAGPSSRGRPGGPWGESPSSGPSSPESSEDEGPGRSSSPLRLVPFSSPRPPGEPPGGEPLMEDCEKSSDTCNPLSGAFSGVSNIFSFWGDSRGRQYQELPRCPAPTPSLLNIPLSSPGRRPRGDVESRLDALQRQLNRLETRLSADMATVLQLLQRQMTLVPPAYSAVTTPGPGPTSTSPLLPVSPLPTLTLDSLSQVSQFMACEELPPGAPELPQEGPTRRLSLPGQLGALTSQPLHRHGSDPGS

[6] = target: 5-hydroxytryptamine receptor 2B (Homo sapiens) (UniProt P41595); assay: Inhibition of human 5HT2B at 10 uM by radioligand displacement assay
5-hydroxytryptamine receptor 2B (Homo sapiens), sequence (P41595 whole entry): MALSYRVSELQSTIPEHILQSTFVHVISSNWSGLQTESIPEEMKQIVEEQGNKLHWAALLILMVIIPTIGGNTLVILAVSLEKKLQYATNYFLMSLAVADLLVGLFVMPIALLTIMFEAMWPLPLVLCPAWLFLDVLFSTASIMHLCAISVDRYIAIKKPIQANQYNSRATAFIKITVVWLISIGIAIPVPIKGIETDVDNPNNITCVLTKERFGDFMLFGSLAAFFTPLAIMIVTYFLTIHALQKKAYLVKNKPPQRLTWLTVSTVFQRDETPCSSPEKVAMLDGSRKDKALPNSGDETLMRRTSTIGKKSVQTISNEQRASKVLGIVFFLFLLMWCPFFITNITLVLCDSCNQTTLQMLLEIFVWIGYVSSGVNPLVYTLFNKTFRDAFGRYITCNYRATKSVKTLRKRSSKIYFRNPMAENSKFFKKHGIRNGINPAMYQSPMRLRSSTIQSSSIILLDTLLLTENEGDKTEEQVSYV

[7] = organism: Rattus norvegicus; assay: Inhibition of rat sodium channel site 2 at 10 uM by radioligand displacement assay
[8] = target: T2, Alpha-1D adrenergic receptor (Homo sapiens) (UniProt P25100); assay: Inhibition of human alpha1D adrenergic receptor at 10 uM by radioligand displacement assay
T2 sequence (whole entry): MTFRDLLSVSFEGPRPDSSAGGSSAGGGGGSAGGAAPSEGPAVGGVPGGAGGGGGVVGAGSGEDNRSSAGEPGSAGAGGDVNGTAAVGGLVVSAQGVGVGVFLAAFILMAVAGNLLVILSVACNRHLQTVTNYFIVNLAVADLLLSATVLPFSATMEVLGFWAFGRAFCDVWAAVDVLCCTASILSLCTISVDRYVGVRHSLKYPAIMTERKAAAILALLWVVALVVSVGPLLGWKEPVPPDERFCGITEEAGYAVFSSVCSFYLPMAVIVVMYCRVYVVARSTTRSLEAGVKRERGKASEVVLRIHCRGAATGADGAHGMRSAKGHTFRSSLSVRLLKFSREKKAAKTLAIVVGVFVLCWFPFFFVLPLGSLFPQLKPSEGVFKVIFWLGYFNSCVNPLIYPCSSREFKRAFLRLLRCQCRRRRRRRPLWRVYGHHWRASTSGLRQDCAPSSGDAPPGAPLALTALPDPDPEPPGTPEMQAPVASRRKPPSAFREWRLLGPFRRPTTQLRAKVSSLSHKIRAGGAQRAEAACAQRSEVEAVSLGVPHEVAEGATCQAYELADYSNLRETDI

[9] = target: T3, Alpha-2A adrenergic receptor (Homo sapiens) (UniProt P08913); assay: Inhibition of human alpha2A adrenergic receptor at 10 uM by radioligand displacement assay
T3 sequence (whole entry): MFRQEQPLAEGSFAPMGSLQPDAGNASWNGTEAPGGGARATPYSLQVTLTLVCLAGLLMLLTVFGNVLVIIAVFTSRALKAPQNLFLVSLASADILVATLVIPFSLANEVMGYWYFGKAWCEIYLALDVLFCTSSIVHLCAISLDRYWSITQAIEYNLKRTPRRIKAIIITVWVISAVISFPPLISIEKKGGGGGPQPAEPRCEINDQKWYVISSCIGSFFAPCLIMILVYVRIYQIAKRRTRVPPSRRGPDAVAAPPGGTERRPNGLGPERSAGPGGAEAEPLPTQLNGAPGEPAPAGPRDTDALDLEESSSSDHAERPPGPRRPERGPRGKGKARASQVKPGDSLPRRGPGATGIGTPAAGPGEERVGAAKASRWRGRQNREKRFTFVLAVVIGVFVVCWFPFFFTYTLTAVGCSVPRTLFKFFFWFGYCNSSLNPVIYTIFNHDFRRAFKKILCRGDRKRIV

[10] = organism: Rattus norvegicus; assay: Inhibition of rat L-type calcium channel dihydropyridine binding site at 10 uM by radioligand displacement assay
[11] = target: D(1A) dopamine receptor (Homo sapiens) (UniProt P21728); assay: Inhibition of human dopamine D1 receptor at 10 uM by radioligand displacement assay
D(1A) dopamine receptor (Homo sapiens), sequence (P21728 whole entry): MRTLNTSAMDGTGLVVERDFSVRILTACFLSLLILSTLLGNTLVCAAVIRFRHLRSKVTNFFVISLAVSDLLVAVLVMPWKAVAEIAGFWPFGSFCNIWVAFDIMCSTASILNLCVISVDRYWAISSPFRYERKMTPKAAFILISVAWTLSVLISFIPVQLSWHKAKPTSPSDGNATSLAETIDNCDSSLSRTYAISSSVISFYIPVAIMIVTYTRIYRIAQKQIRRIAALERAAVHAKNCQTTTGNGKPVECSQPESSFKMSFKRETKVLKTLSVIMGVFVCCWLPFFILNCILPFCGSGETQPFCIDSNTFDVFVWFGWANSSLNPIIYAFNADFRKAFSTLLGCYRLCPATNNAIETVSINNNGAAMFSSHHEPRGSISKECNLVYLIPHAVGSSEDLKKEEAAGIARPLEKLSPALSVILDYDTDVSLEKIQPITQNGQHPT

[12] = target: D(3) dopamine receptor (Homo sapiens) (UniProt P35462); assay: Inhibition of human dopamine D3 receptor at 10 uM by radioligand displacement assay
D(3) dopamine receptor (Homo sapiens), sequence (P35462 whole entry): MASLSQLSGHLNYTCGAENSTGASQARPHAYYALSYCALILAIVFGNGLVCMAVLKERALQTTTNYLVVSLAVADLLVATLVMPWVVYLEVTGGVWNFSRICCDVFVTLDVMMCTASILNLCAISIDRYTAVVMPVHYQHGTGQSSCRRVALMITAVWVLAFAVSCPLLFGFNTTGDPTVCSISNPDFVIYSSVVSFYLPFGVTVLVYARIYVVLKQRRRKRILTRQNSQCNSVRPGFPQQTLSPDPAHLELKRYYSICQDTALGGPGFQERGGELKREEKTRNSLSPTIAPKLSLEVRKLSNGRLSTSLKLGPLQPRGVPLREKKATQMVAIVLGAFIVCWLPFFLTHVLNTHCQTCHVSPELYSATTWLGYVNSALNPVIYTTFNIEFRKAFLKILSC

[13] = target: Histamine H1 receptor (Homo sapiens) (UniProt P35367); assay: Inhibition of human histamine H1 receptor at 10 uM by radioligand displacement assay
[14] = organism: Homo sapiens; assay: Inhibition of human melatonin MT1 receptor at 10 uM by radioligand displacement assay
[15] = target: Sodium-dependent noradrenaline transporter (Homo sapiens) (UniProt P23975); assay: Inhibition of human NET at 10 uM by radioligand displacement assay
Sodium-dependent noradrenaline transporter (Homo sapiens), sequence (P23975 whole entry): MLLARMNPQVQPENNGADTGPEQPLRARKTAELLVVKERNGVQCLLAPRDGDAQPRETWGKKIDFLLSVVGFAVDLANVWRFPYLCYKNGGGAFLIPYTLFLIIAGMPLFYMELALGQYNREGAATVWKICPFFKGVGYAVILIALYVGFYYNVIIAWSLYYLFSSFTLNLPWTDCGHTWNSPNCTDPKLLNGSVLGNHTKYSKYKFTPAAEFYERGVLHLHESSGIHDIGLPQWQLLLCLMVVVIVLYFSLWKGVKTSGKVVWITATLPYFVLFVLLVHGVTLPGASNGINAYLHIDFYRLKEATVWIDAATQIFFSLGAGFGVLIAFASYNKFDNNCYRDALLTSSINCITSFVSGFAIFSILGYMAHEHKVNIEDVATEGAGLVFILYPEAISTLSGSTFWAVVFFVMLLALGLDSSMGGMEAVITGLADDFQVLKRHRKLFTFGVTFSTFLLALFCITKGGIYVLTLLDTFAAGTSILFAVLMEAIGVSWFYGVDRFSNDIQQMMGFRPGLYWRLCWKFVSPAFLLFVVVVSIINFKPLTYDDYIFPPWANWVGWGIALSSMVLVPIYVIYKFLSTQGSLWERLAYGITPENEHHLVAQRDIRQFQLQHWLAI

[16] = target: Kappa-type opioid receptor (Homo sapiens) (UniProt P41145); assay: Inhibition of human kappa opioid receptor at 10 uM by radioligand displacement assay
Kappa-type opioid receptor (Homo sapiens), sequence (P41145 whole entry): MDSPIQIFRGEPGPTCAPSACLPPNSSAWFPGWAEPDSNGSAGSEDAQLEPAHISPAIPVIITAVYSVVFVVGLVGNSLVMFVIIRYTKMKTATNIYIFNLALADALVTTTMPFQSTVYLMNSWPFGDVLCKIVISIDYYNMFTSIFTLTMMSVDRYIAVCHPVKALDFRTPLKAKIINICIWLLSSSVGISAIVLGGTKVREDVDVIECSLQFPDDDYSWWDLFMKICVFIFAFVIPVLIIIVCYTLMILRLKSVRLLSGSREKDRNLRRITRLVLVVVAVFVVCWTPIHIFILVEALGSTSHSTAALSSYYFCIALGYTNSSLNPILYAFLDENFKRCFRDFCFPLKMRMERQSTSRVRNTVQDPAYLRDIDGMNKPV

[17] = target: Prostaglandin E2 receptor EP4 subtype (Homo sapiens) (UniProt P35408); assay: Inhibition of human prostanoid EP4 receptor at 10 uM by radioligand displacement assay
Prostaglandin E2 receptor EP4 subtype (Homo sapiens), sequence (P35408 whole entry): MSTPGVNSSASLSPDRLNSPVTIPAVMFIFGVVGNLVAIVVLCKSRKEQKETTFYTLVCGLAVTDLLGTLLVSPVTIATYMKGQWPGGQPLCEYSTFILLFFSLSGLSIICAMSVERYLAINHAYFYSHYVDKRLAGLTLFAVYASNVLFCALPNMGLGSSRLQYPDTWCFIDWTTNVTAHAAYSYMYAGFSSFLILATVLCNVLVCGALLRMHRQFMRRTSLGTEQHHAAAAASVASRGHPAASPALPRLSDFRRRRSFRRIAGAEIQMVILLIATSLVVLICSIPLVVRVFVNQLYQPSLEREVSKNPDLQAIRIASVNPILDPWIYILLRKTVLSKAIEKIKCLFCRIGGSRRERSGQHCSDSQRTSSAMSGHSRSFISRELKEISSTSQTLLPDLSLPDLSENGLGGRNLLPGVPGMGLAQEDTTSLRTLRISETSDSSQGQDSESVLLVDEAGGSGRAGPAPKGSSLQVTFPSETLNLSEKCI

[18] = system: U2OS; assay: Cytotoxicity against human U2OS cells expressing human HIF1alpha by CellTiterGlo assay in presence of 50 uM iron; assay type: cell-based
[19] = system: U2OS; assay: Cytotoxicity against human U2OS cells expressing human HIF1alpha by CellTiterGlo assay in presence of 50 uM zinc; assay type: cell-based

inhibition [1]: inactive
Compound: CCCCNC(=O)c1cc(-c2ccc(F)cc2)on1

inhibition [2]: inactive
inhibition [3]: 80%
inhibition [4]: 87%
inhibition [1]: 85%
inhibition [6]: 92%
inhibition [7]: 105%
inhibition [8]: 53%
inhibition [9]: 57%
inhibition [10]: 56%
inhibition [11]: 54%
inhibition [12]: 67%
inhibition [13]: 65%
inhibition [14]: 51%
inhibition [15]: 67%
inhibition [16]: 71%
inhibition [17]: 53%
Compound: c1ccc(-c2ccc(CNc3nc(-c4ccccn4)nnc3-c3ccccc3)cc2)cc1
inhibition at 10 µM [5]: 86%
Activity [18]: Non-toxic
Activity [19]: Non-toxic

inhibition [1]: inactive
Compound: O=C(NCCCCO)c1cc(-c2ccccc2)on1

inhibition [1]: inactive
Compound: O=C(NCCCn1ccnc1)c1cc(-c2ccccc2)on1

inhibition [1]: inactive
Compound: O=C(NCC1CC1)c1cc(-c2ccccc2)on1

inhibition [1]: inactive
Compound: O=C(NCCCN1CCOCC1)c1cc(-c2ccccc2)on1
